According to PMC6838199 (Scientific Reports, 2019):

Tests used:
Test in all cases: E1-E2 transthioesterification assay (UbcH5a, Coomassie gel), recombinant purified E1
Format in all cases: biochemical
TbUBA1a [1] = target: T1, TbUBA1a (Trypanosoma brucei, UniProt Q57XC5)
T1 construct: gene Tb08.26A17.680; GST fusion cleaved with HRV 3C

[2] = target: T2, human UBA1 (hUBA1), ubiquitin E1 activating enzyme (Homo sapiens, UniProt P22314)
T2 construct: N-terminal His-tagged hUBA1
T2 sequence (P22314 2-1058): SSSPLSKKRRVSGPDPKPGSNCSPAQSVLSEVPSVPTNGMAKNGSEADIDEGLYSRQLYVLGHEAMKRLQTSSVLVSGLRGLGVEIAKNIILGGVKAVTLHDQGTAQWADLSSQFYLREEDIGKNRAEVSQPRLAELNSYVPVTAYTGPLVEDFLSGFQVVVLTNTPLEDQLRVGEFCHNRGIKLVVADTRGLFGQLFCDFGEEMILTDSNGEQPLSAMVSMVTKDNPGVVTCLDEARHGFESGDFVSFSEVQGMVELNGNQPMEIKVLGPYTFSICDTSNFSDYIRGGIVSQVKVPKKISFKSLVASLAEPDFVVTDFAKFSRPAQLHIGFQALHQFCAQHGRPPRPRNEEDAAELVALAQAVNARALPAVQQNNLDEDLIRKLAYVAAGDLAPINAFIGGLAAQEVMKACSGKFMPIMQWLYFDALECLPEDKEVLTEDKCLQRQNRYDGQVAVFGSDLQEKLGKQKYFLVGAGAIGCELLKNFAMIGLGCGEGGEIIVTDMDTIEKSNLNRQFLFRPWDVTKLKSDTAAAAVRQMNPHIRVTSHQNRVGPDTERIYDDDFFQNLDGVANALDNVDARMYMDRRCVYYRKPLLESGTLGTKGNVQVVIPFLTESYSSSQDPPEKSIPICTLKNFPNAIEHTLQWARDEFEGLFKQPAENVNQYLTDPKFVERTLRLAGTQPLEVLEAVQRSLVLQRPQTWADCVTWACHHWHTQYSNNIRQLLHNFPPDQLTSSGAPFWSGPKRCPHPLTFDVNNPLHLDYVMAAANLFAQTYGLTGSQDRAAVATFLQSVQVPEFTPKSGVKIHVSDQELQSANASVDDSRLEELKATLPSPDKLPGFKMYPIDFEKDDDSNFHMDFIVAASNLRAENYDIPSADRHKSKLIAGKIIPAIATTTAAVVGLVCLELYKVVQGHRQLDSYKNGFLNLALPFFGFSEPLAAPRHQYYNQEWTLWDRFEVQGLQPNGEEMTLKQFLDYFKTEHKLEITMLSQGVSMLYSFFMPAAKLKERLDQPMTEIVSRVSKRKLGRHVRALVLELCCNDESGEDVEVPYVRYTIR

TbUBA1b [3] = target: T3, TbUBA1b (Trypanosoma brucei, UniProt Q38DE8)
T3 construct: gene Tb09.211.3610; GST fusion cleaved with thrombin
T3 sequence (Q38DE8 1-1214): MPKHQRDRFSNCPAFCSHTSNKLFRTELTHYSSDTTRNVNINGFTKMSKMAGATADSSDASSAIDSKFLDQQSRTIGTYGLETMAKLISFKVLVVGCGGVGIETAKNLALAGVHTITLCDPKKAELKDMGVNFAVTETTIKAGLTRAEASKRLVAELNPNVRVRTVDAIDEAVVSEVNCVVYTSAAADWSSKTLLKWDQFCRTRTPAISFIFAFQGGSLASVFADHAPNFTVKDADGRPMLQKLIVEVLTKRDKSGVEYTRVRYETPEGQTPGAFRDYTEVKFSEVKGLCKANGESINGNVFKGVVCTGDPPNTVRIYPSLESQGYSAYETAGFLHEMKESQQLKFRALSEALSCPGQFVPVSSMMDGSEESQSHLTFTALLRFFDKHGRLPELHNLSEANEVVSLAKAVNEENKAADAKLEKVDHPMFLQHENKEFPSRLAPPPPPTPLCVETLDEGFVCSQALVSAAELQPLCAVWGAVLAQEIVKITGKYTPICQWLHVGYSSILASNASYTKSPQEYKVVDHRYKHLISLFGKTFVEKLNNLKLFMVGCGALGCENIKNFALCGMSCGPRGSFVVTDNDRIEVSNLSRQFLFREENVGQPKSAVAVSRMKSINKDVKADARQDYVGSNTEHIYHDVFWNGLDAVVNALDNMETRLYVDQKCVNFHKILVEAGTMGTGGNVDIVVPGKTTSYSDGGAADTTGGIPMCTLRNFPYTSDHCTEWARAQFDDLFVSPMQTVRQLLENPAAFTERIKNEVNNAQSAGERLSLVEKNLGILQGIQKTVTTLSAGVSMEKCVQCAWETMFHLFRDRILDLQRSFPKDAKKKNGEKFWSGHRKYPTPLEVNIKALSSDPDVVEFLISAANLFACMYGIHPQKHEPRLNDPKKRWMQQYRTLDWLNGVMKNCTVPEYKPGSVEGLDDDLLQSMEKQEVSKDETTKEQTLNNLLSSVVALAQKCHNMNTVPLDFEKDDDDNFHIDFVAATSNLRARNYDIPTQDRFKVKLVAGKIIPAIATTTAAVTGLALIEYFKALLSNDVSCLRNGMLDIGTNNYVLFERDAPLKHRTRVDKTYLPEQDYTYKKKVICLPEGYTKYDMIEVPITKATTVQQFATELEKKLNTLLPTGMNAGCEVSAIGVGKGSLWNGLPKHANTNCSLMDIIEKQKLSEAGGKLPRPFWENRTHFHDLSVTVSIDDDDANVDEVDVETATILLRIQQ

TbUBA1b [4] = target: T4, TbUBA1b (Trypanosoma brucei, UniProt Q38DE8, E656D/T657A)
T4 construct: gene Tb09.211.3610; GST fusion cleaved with thrombin; with ubiquitin

TbUBA1b [5] = target: T5, TbUBA1b (Trypanosoma brucei, UniProt Q38DE8)
T5 construct: gene Tb09.211.3610; GST fusion cleaved with thrombin; with ubiquitin

TbUBA1a [6] = target: T6, TbUBA1a (Trypanosoma brucei, UniProt Q57XC5, E559D/Q534P/S560A)
T6 construct: gene Tb08.26A17.680; GST fusion cleaved with HRV 3C; with ubiquitin
T6 sequence (Q57XC5 whole entry E559D/Q534P/S560A, the tested form may be a part): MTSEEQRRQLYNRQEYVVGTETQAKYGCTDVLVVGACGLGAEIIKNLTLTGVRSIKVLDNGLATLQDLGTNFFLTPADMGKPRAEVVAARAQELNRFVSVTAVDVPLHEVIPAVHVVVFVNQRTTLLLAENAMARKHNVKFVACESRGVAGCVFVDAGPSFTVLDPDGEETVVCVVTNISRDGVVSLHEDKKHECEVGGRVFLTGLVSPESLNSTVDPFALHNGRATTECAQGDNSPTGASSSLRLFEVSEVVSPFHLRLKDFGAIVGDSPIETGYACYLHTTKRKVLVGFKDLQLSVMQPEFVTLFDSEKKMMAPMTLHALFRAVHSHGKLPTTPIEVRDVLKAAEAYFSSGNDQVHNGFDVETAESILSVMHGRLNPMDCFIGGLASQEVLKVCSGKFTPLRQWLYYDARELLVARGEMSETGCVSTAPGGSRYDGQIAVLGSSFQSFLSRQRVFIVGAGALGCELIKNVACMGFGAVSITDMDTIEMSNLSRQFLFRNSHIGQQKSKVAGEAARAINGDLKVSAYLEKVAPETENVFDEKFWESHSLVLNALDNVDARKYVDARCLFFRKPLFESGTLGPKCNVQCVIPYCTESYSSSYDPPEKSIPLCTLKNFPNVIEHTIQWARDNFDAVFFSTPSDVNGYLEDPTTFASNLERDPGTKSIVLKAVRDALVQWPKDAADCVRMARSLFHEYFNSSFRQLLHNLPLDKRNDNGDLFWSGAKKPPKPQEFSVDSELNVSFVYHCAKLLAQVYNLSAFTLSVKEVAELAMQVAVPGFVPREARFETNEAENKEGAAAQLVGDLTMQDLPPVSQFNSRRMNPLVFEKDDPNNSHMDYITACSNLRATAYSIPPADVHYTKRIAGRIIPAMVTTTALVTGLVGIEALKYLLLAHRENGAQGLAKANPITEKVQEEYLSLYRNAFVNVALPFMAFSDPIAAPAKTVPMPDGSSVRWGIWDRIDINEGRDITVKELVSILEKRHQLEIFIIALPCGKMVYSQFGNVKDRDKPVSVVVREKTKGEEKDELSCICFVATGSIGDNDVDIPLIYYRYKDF

T1 sequence (Q57XC5 1-1055): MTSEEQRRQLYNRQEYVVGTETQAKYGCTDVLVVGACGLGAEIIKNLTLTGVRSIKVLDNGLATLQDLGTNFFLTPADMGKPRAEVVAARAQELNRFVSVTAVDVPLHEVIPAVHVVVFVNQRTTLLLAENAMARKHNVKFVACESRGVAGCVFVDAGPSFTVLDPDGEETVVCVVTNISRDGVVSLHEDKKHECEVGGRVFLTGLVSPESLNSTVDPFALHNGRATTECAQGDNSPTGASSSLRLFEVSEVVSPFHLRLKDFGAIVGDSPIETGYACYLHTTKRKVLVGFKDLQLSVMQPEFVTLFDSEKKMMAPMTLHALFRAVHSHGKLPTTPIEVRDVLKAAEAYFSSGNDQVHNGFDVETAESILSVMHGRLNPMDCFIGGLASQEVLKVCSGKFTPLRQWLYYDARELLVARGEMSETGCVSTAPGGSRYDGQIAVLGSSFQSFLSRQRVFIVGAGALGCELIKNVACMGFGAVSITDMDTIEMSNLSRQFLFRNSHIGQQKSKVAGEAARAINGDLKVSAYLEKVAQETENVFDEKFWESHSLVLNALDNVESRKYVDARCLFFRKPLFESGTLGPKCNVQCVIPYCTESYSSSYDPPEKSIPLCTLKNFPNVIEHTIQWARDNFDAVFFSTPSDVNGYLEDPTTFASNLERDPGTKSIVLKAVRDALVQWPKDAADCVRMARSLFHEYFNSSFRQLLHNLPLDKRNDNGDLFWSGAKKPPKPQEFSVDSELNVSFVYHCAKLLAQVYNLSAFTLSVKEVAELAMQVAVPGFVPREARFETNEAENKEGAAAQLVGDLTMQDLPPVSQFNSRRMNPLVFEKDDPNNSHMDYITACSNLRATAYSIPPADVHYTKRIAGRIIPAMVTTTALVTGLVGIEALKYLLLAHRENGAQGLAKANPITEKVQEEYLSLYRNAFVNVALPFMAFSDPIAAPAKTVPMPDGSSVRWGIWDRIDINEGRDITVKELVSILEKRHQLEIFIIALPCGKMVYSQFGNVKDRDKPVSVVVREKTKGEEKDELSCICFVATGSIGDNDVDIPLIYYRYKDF

CCOC(=O)c1ccc(N2NC(=O)C(=Cc3ccc([N+](=O)[O-])o3)C2=O)cc1 [PYR-41]
E1-E2 transthioesterification assay (UbcH5a, Coomassie gel), recombinant purifie (TbUBA1a [1]): the TbUBA1s were slightly (~two-fold) more sensitive to PYR-41 than hUBA1
E1-E2 transthioesterification assay (UbcH5a, Coomassie gel), recombinant purifie [2]: we observed very little difference between inhibition of human and the T. brucei UBA1s (Fig. 3C)
E1-E2 transthioesterification assay (UbcH5a, Coomassie gel), recombinant purifie (TbUBA1b [3]): the TbUBA1s were slightly (~two-fold) more sensitive to PYR-41 than hUBA1

NS(=O)(=O)OC[C@H]1C[C@@H](Nc2ccnc3cc(-c4cccc(SC(F)(F)F)c4)nn23)[C@H](O)[C@@H]1O [TAK-243]
E1-E2 transthioesterification assay (UbcH5a, Coomassie gel), recombinant purifie (TbUBA1b [4]): The increase in inhibition of the double mutant E656D, T657A was almost as large as that of the triple mutant
IC50 (TbUBA1b [5]): 159 µM
IC50 (TbUBA1a [6]): 12 µM
